Reference: ChEMBL document CHEMBL1275472, “Cell-penetrating peptide TP10 shows broad-spectrum activity against both Plasmodium falciparum and Trypanosoma brucei brucei” (Antimicrob Agents Chemother, 2008)
Activity calls are given as the source filed them. The rule behind the calls is not given here.

How the values were obtained:
Plasmodium falciparum [1] = experiment: Antiplasmodial activity against asynchronous blood-stage Plasmodium falciparum HB3 infected in human RBC at 30 uM after 24 hrs by Malstat assay; type: functional, organism-based
Plasmodium falciparum [2] = experiment: Antiplasmodial activity against Plasmodium falciparum 3D7 clone infected in Anopheles gambiae Keele vector assessed as prevalence of […] infection at 30 uM; type: functional
Plasmodium falciparum [3] = experiment: Antiplasmodial activity against asynchronous blood-stage Plasmodium falciparum HB3 infected in human RBC at 30 uM after 24 hrs by microscopy; type: functional, organism-based
Plasmodium falciparum [4] = experiment: Antiplasmodial activity against asynchronous blood-stage Plasmodium falciparum HB3 infected in human RBC at 30 uM after 15 hrs by Malstat assay; type: functional, organism-based
[5] = test system: Trypanosoma brucei brucei; experiment: […] activity against bloodstream form of Trypanosoma brucei 427; type: functional, organism-based
[6] = test system: Trypanosoma brucei brucei; experiment: Trypanocidal activity against bloodstream form of Trypanosoma brucei brucei 427 assessed as lysis half-time at 5.4 uM by alamar blue assay; type: functional, organism-based
Plasmodium falciparum [7] = experiment: Antiplasmodial activity against asynchronous blood-stage Plasmodium falciparum HB3 infected in human RBC at 30 uM after 18 hrs by Malstat assay; type: functional, organism-based
Homo sapiens = species on record: Homo sapiens; experiment: Toxicity in human RBC assessed as induction of hemolysis at 1 to 30 uM
Plasmodium falciparum [8] = experiment: Antiplasmodial activity against asynchronous blood-stage Plasmodium falciparum HB3 infected in human RBC at 30 uM after 21 hrs by Malstat assay; type: functional, organism-based

Row | Compound | Activity (Plasmodium falciparum [1]) | Activity (Plasmodium falciparum [2]) [%] | Activity (Plasmodium falciparum [3]) | Activity (Plasmodium falciparum [4]) | IC50 [5] [nM] | Activity [6] | Activity (Plasmodium falciparum [7]) | Activity (Homo sapiens) | Activity (Plasmodium falciparum [8])
1 | H-LLIILRRRIRKQAHAHSK-OH | inactive | 44 | inactive |  |  |  |  |  | 
2 | CC[C@H](C)[C@H](NC(=O)[C@H](CCCCN)NC(=O)[C@H](CCCCN)NC(=O)[C@H](C)NC(=O)[C@H](CC(C)C)NC(=O)[C@H](C)NC(=O)[C@H](C)NC(=O)[C@H](CC(C)C)NC(=O)[C@H](C)NC(=O)[C@H](CCCCN)NC(=O)[C@H](CC(C)C)NC(=O)[C@H](CC(N)=O)NC(=O)[C@@H](NC(=O)[C@H](CCCCN)NC(=O)CNC(=O)[C@H](CC(C)C)NC(=O)[C@H](CC(C)C)NC(=O)[C@H](Cc1ccc(O)cc1)NC(=O)CNC(=O)[C@H](C)N)[C@@H](C)CC)C(=O)N[C@@H](CC(C)C)C(=O)O | Active | 30 | Active | Active | 2700 | Active | Active | Non-toxic | Active
